Test results published in ChEMBL document CHEMBL3865843, “Identification of Ligand Binding Hot Spots of the Histamine H1 Receptor following Structure-Based Fragment Optimization” (J Med Chem, 2016).

Key:
Histamine H1 receptor = Histamine H1 receptor (Homo sapiens, UniProt P35367); assay: biochemical; type: cell-based, HEK-293T
[1] = Displacement of [3H]mepyramine from human N-terminal hemagglutinin-tagged histamine H1 receptor I454(7.39)T mutant expressed in HEK293T cells after 4 hrs by microbeta liquid scintillation counting analysis; type: cell-based; conditions: hek-293t
[2] = Displacement of [3H]mepyramine from human N-terminal hemagglutinin-tagged histamine H1 receptor I454(7.39)F mutant expressed in HEK293T cells after 4 hrs by microbeta liquid scintillation counting analysis; type: cell-based; conditions: hek-293t

Chain of Histamine H1 receptor (P35367 whole entry): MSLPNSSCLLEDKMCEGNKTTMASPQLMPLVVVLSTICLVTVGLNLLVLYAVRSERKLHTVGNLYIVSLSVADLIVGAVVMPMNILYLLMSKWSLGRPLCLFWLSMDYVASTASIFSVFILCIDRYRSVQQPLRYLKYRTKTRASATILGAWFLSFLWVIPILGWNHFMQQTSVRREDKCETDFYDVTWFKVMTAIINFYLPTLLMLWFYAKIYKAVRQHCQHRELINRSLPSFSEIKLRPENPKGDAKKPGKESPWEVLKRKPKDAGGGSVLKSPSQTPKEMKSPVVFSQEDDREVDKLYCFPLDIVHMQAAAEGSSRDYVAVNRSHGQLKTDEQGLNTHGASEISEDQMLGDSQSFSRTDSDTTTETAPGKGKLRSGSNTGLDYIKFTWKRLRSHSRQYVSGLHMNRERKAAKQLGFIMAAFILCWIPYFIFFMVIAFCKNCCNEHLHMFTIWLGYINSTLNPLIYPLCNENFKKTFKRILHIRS

Row | Compound | Ki (Histamine H1 receptor) | pKi [1] | pKi [2]
1 | CN(C)CCCOc1ccccc1Cc1ccccc1 | 0.00316 µM |  | 
2 | C[N+]1(C)CCC(Oc2ccccc2Cc2ccccc2)CC1 | 0.0251 µM |  | 
3 | Clc1ccc(Cc2ccccc2OC2CCNCC2)cc1 | 0.00631 µM |  | 
4 | CN1CCC(Oc2ccccc2)CC1 | 0.251 µM |  | 
5 | CNCCCOc1ccccc1Cc1ccccc1 | 0.0316 µM |  | 
6 | c1ccc(Cc2ccccc2OCCCN2CCCCCC2)cc1 | 0.02 µM |  | 
7 | c1ccc(Cc2ccccc2OCCCN2CCCC2)cc1 | 0.01 µM |  | 
8 | CNCCOc1ccccc1Cc1ccccc1 | 0.1 µM |  | 
9 | c1ccc(Cc2ccccc2OCCN2CCC2)cc1 | 0.00631 µM |  | 
10 | NCCCOc1ccccc1Cc1ccccc1 | 0.316 µM |  | 
11 | c1ccc(-c2ccccc2OC2CCNCC2)cc1 | 0.316 µM |  | 
12 | c1ccc(Cc2ccccc2OCCCN2CCC2)cc1 | 0.00794 µM |  | 
13 | CN1CCC(Oc2ccccc2Cc2ccc(Cl)cc2)CC1 | 0.00251 µM |  | 
14 | NCCOc1ccccc1Cc1ccccc1 | 1.58 µM |  | 
15 | c1ccc(Cc2ccccc2OCCN2CCCCC2)cc1 | 0.0251 µM |  | 
16 | c1ccc(Cc2ccccc2OCCN2CCCCCC2)cc1 | 0.0631 µM |  | 
17 | CN(C)CCOc1ccccc1Cc1ccccc1 | 0.0126 µM |  | 
18 | c1ccc(OC2CCNCC2)cc1 | 3.98 µM |  | 
19 | O=C(O)/C=C/C(=O)O.c1ccc(Cc2ccccc2OC2CCNCC2)cc1 | 0.0158 µM | 8 | 7.4
20 | c1ccc(Cc2cccc(OC3CCNCC3)c2)cc1 | 1.58 µM |  | 
21 | c1ccc(Cc2ccc(OC3CCNCC3)cc2)cc1 | 10 µM |  | 
22 | c1ccc(Cc2ccccc2OCCN2CCCC2)cc1 | 0.0158 µM |  | 
23 | c1ccc(Cc2ccccc2OCCCN2CCCCC2)cc1 | 0.0126 µM |  | 
24 | CN1CCC(Oc2ccccc2Cc2ccccc2)CC1.O=C(O)/C=C/C(=O)O |  | 8.3 | 8.2
